# Measured values from patent publication US4745067A, “L-aminoacylases” (Microbial Chemistry Research Foundation, priority 1985, dated 1988).
# Entries after “also recorded” stand apart in the source; their conditions may differ. Like-named read-outs stand apart in the source and are kept apart here.
# B1: Acylase I: commercially available aminoacylase (hog kidney), manufactured by Miles Laboratory (protein, UniProt P37111 2-407, looked up)
# Aminoacylase-1: ASKGREGEHPSVTLFRQYLRIRTVQPEPDYGAAVAFLEERARQLGLGCQKVEVVPGHVVTVLTWPGTNPTLSSILLNSHTDVVPVFKEHWSHDPFEGFKDADGYIYGRGAQDMKCVSIQYLEAVRRLKVEGHHFPRTIHMTFVPDEEVGGHQGMELFVKRPEFQALRAGFALDEGLASPTDAFTVFYSERSPWWLRVTSTGKPGHGSRFIEDTAAEKLHKVINSILAFREKEKQRLQSNQLKPGAVTSVNLTMLEGGVAYNVVPATMSACFDFRVAPDVDLKAFEEQLQSWCQAAGEGVTFEFVQKWMETQVTSTDDSDPWWAAFSGVFKDMKLALELEICPASTDARYIRAAGVPALGFSPMNHTPVLLHDHDERLHEAVFLRGVDIYTQLLSALASVPALPSES
# Legend:
# L-aminoacylase S1 [1] = assay: Substrate profile of L-aminoacylase S1; type: biochemical, Streptomyces hachijoensis; conditions: for Relative activity (%): compound used as substrate, L-N-acetyl-methionine evaluated to be 100
# Protocol: (§1) The enzymatic activity was measured by using N-acyl derivatives of various amino acids as the substrate.
# L-aminoacylase S2 [2] = assay: Substrate profile of L-aminoacylase S2; type: biochemical, Streptoverticillium rimofaciens; conditions: for Relative activity (%): compound used as substrate, L-N-acetyl-methionine evaluated to be 100
# Protocol: as §1
# L-aminoacylase S2 [3] = assay: Influence of metal ions on L-aminoacylase S2; type: biochemical, Streptoverticillium rimofaciens; conditions: for Relative activity (%): 1 mM metal salt, 37° C. 1 hour, substrate N-Ac-DB-DOPS, no metal salt added = 100%
# Protocol: (§2) As the substrate, N-Ac-DB-DOPS was used, and the reaction was conducted at 37° C. for one hour, whereby freed DB-DOPS was measured by a ninhydrin method to determine the enzymatic activity.
# L-aminoacylase S2 of the present invention was added to 0.1 M Veronal buffer solution containing as the final concentration 1 mM of various metal salts, and the reaction was conducted at 37° C. for 1 hour. Then, it was reacted with N-Ac-DB-DOPS as the substrate at 37° C. for one hour, whereupon the relative activity was measured by the above-mentioned method. The activity of the one where no metal salt was added, was evaluated to be 100%.
# L-aminoacylase S1 [4] = assay: Influence of metal ions on L-aminoacylase S1; type: biochemical, Streptomyces hachijoensis; conditions: for Relative activity (%): 1 mM metal salt, 37° C. one hour, substrate N-Ac-DB-DOPS, no metal added = 100%
# Protocol: (§3) A potassium phosphate buffer solution (pH 7.0) of the enzyme of the present invention was treated for one hour at various temperatures, and the remaining activity was measured. As the substrate, L-threo-N-acetyl-3-(3,4-dibenzyloxyphenyl)serine (hereinafter referred to simply as N-Ac-DB-DOPS) was employed, and the reaction was conducted at 37° C. for one hour, whereupon freed L-threo-3-(3,4-dibenzyloxyphenyl)serine (hereinafter referred to simply as DB-DOPS) was measured by a ninhydrin method to determine the activity.
# L-aminoacylase S1 of the present invention is added to a 0.1 M Veronal buffer solution containing a final concentration of 1 mM of various metal salts, and left to stand at 37° C. for one hour. Then, it was reacted with N-Ac-DB-DOPS as the substrate at 37° C. for 1 hour, whereby the relative activity was measured by the above-mentioned method. The one where no metal was added, was evaluated to be 100%.
# L-aminoacylase S2 [5] = assay: Influence of inhibitors on L-aminoacylase S2; type: biochemical, Streptoverticillium rimofaciens
# Protocol: as §2, with “activity. As shown in the Figure, 20% is deactivated by the treatment at 60° C., and at least 70% is deactivated at 70° C. However, the enzyme is certainly stable at 50° C.” for “activity.”
# The enzyme of the present invention was left to stand for one hour at 37° C. together with various inhibitors, and then reacted at 37° C. for one hour with N-Ac-DB-DOPS as the substrate, whereupon the remaining activity was measured by the above-mentioned method.
# L-aminoacylase S1 [6] = assay: Influence of inhibitors on L-aminoacylase S1; type: biochemical, Streptomyces hachijoensis
# Protocol: as §3, with “activity. As shown, 95% or more is deactivated by the treatment at pH 7.0 at 60° C., but the enzyme is certainly stable at a temperature of 50° C. or lower.” for “activity.”
# The enzyme of the present invention is left to stand at 37° C. for one hour together with various inhibitors, and then reacted with N-Ac-DB-DOPS as the substrate at 37° C. for one hour, whereby the remaining activity was measured by the above-mentioned method.
# [7] = Comparison of substrate profiles of L-aminoacylases, substrate L-N-acetyl-methionine; type: biochemical; set-up: key: +: active; -: inactive; conditions: Table 7
# Protocol: (§4) The substrate profiles of L-aminoacylase S1 and L-aminoacylase S2 of the present invention and conventional L-aminoacylases were measured.
# (§5) L-aminoacylase S1 and L-aminoacylase S2 of the present invention was compared with commercially available L-aminoacylases in their activity by using N-acetyl derivatives of D- or L-methionine and L-threo-3-(3,4-dibenzyloxyphenyl) serine as substrates.
# [8] = Comparison of substrate profiles of L-aminoacylases, substrate D-N-acetyl-methionine; type: biochemical; set-up: key: +: active; -: inactive; conditions: Table 7
# Protocol: as §4, §5
# [9] = Comparison of substrate profiles of L-aminoacylases, substrate L-threo-N-acetyl-3-(3,4-dibenzyloxyphenyl)serine; type: biochemical; set-up: key: +: active; -: inactive; conditions: Table 7
# Protocol: as §4, §5
# [10] = L-aminoacylase S2, inhibitor 1 mM, 37° C. one hour, substrate N-Ac-DB-DOPS
# [11] = L-aminoacylase S1, inhibitor 1 mM, 37° C. one hour, substrate N-Ac-DB-DOPS
molecule,measurement,setting,value
"CC(=O)NC(C)c1ccccc1 (racemic) [DL-N--acetyl-α-methylbenzylamine, DL-N-acetyl-α-methylbenzylamine]",Action of the enzyme on the substrate (in words),L-aminoacylase S1 [1],does not act
same,Relative activity (%),L-aminoacylase S1 [1],0%
same,Action of the enzyme on the substrate (in words),L-aminoacylase S2 [2],does not act
same,Relative activity (%),L-aminoacylase S2 [2],0%
[Ag+] [Ag^+],Influence of metal ions on activity (in words),L-aminoacylase S2 [3],prohibited; also recorded: strongly inhibited
same,Relative activity (%),L-aminoacylase S2 [3],0%
same,Influence of metal ions on activity (in words),L-aminoacylase S1 [4],strongly inhibited
same,Relative activity (%),L-aminoacylase S1 [4],3%
[Ca+2] [Ca^++],Relative activity (%),L-aminoacylase S2 [3],98%
same,Relative activity (%),L-aminoacylase S1 [4],72%
[Co+2] [Co^++],Influence of metal ions on activity (in words),L-aminoacylase S2 [3],prohibited; also recorded: strongly inhibited
same,Relative activity (%),L-aminoacylase S2 [3],38%
same,Influence of metal ions on activity (in words),L-aminoacylase S1 [4],activated
same,Relative activity (%),L-aminoacylase S1 [4],162%
[Cu+2] [Cu^++],Influence of metal ions on activity (in words),L-aminoacylase S2 [3],prohibited; also recorded: strongly inhibited
same,Relative activity (%),L-aminoacylase S2 [3],16%
same,Influence of metal ions on activity (in words),L-aminoacylase S1 [4],strongly inhibited
same,Relative activity (%),L-aminoacylase S1 [4],14%
CSCC[C@@H](NC(C)=O)C(=O)O [D-N--acetyl-methionine],Relative activity (%),L-aminoacylase S1 [1],0%
same,Relative activity (%),L-aminoacylase S2 [2],0%
CC(=O)N[C@H](Cc1c[nH]c2ccccc12)C(=O)O [D-N--acetyl-tryptophan],Relative activity (%),L-aminoacylase S1 [1],0%
same,Relative activity (%),L-aminoacylase S2 [2],0%
[Fe+2] [Fe^++],Influence of metal ions on activity (in words),L-aminoacylase S2 [3],prohibited; also recorded: strongly inhibited
same,Relative activity (%),L-aminoacylase S2 [3],18%
same,Influence of metal ions on activity (in words),L-aminoacylase S1 [4],strongly inhibited
same,Relative activity (%),L-aminoacylase S1 [4],17%
[Hg+2] [Hg^++],Influence of metal ions on activity (in words),L-aminoacylase S2 [3],prohibited; also recorded: strongly inhibited
same,Relative activity (%),L-aminoacylase S2 [3],15%
same,Influence of metal ions on activity (in words),L-aminoacylase S1 [4],strongly inhibited
same,Relative activity (%),L-aminoacylase S1 [4],2%
CC(=O)N[C@H](C(=O)O)c1ccc(CO)c(O)c1 [L-N--acetyl-2-(4-hydroxymethyl-3-hydroxyphenyl)glycine],Relative activity (%),L-aminoacylase S1 [1],41%
same,Relative activity (%),L-aminoacylase S2 [2],65%
CC(=O)N[C@@H](C)C(=O)O [L-N--acetyl-alanine],Relative activity (%),L-aminoacylase S1 [1],7%
same,Relative activity (%),L-aminoacylase S2 [2],8%
CC(=O)N[C@@H](CCCNC(=N)N)C(=O)O [L-N--acetyl-arginine],Relative activity (%),L-aminoacylase S1 [1],85%
same,Relative activity (%),L-aminoacylase S2 [2],61%
CC(=O)N[C@@H](CCC(=O)O)C(=O)O [L-N--acetyl-glutamic acid],Relative activity (%),L-aminoacylase S1 [1],19%
same,Relative activity (%),L-aminoacylase S2 [2],18%
CC(=O)N[C@@H](Cc1c[nH]cn1)C(=O)O [L-N--acetyl-histidine],Relative activity (%),L-aminoacylase S1 [1],41%
same,Relative activity (%),L-aminoacylase S2 [2],36%
CC(=O)N[C@@H](CC(C)C)C(=O)O [L-N--acetyl-leucine],Relative activity (%),L-aminoacylase S1 [1],76%
same,Relative activity (%),L-aminoacylase S2 [2],71%
"CSCC[C@H](NC(C)=O)C(=O)O [L-N--acetyl-methionine, L-N-acetyl-methionine]",Relative activity (%),L-aminoacylase S1 [1],100%
same,Relative activity (%),L-aminoacylase S2 [2],100%
CC(=O)N[C@@H](Cc1ccccc1)C(=O)O [L-N--acetyl-phenylalanine],Relative activity (%),L-aminoacylase S1 [1],197%
same,Relative activity (%),L-aminoacylase S2 [2],286%
CC(=O)N[C@@H](Cc1c[nH]c2ccccc12)C(=O)O [L-N--acetyl-tryptophan],Relative activity (%),L-aminoacylase S1 [1],80%
same,Relative activity (%),L-aminoacylase S2 [2],98%
CC(=O)N[C@@H](Cc1ccc(O)cc1)C(=O)O [L-N--acetyl-tyrosine],Relative activity (%),L-aminoacylase S2 [2],137%
CC(=O)N[C@H](C(=O)O)C(C)C [L-N--acetyl-valine],Relative activity (%),L-aminoacylase S1 [1],42%
same,Relative activity (%),L-aminoacylase S2 [2],35%
CSCC[C@H](NC(=O)c1ccccc1)C(=O)O [L-N--benzoyl-methionine],Relative activity (%),L-aminoacylase S2 [2],10%
CSCC[C@H](NC=O)C(=O)O [L-N--formyl-methionine],Relative activity (%),L-aminoacylase S1 [1],4%
same,Relative activity (%),L-aminoacylase S2 [2],5%
N[C@@H](CS)C(=O)O [L-cysteine],Influence of inhibitors on activity (in words),L-aminoacylase S2 [5]; L-aminoacylase S2,strongly inhibited
same,Remaining activity (%),L-aminoacylase S2 [5]; [10],11%
same,Influence of inhibitors on activity (in words),"L-aminoacylase S2 [5]; L-aminoacylase S2, listed as cysteine",inhibited
"CC(=O)N[C@H](C(=O)O)[C@H](O)c1ccc(OCc2ccccc2)c(OCc2ccccc2)c1 [L-threo-N-acetyl-3-(3,4-dibenzyloxyphenyl)serine]",Relative activity (%),L-aminoacylase S1 [1],14%
same,Relative activity (%),L-aminoacylase S2 [2],20%
[Mg+2] [Mg^++],Relative activity (%),L-aminoacylase S2 [3],95%
same,Relative activity (%),L-aminoacylase S1 [4],107%
[Mn+2] [Mn^++],Influence of metal ions on activity (in words),L-aminoacylase S2 [3],prohibited; also recorded: strongly inhibited
same,Relative activity (%),L-aminoacylase S2 [3],31%
same,Relative activity (%),L-aminoacylase S1 [4],61%
O=C(O)CI [Monoiodoacetic acid],Influence of inhibitors on activity (in words),L-aminoacylase S1 [6],not inhibited
same,Remaining activity (%),L-aminoacylase S1 [6],94%
same,Influence of inhibitors on activity (in words),L-aminoacylase S2 [5],strongly inhibited
same,Remaining activity (%),L-aminoacylase S2 [5],3%
"CC(=O)N[C@H]1C(O)O[C@H](CO)[C@@H](O)[C@@H]1O (stereo partly drawn) [N--acetyl-D-glucosamine, N-acetyl-D-glucosamine]",Action of the enzyme on the substrate (in words),L-aminoacylase S1 [1],does not act
same,Relative activity (%),L-aminoacylase S1 [1],0%
same,Action of the enzyme on the substrate (in words),L-aminoacylase S2 [2],does not act
same,Relative activity (%),L-aminoacylase S2 [2],0%
CC(=O)NCC(=O)O [N--acetyl-glycine],Relative activity (%),L-aminoacylase S1 [1],2%
same,Relative activity (%),L-aminoacylase S2 [2],2%
[Ni+2] [Ni^++],Influence of metal ions on activity (in words),L-aminoacylase S2 [3],prohibited; also recorded: strongly inhibited
same,Relative activity (%),L-aminoacylase S2 [3],33%
same,Influence of metal ions on activity (in words),L-aminoacylase S1 [4],strongly inhibited
same,Relative activity (%),L-aminoacylase S1 [4],7%
[Zn+2] [Zn^++],Relative activity (%),L-aminoacylase S2 [3],71%
same,Relative activity (%),L-aminoacylase S1 [4],102%
O=C(O)c1cc[c]([Hg][Cl])cc1 [p-chloromercuribenzoate],Influence of inhibitors on activity (in words),L-aminoacylase S1 [6]; L-aminoacylase S1,inhibited
same,Remaining activity (%),L-aminoacylase S1 [6]; [11],2%
same,Influence of inhibitors on activity (in words),L-aminoacylase S2 [5]; L-aminoacylase S2,strongly inhibited
same,Remaining activity (%),L-aminoacylase S2 [5]; [10],0%
OCCS [β-mercaptoethanol],Remaining activity (%),L-aminoacylase S1 [6]; [11],76%
B1,Activity on substrate L-N-acetyl-methionine,[7],+
same,Activity on substrate D-N-acetyl-methionine,[8],-
same,"Activity on substrate L-threo-N-acetyl-3-(3,4-dibenzyloxyphenyl)serine",[9],-
